Source: US8987195B2 (priority 2012, dated 2015)
Like-named read-outs stand apart in the source and are kept apart here.

Assays:
HCV genotype 1b replicon = test: HCV replicon assay, genotype 1b replicon EC50; type: cell-based, Hepatitis C virus; settings: Hepatitis C virus, read-out: EC50 [gt-1b]
Summary of the method: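 Stable neomycin-selected genotype 1b replicon cells, some carrying luciferase:Neo^r fusion, plated without G418 with a compound dilution series and incubated 24-48 h. Read-out was RNA (^32P-probe protection or TaqMan, normalized to cyclophilin A) or luciferase activity. EC50 from four-parameter fit as percent of DMSO control.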

[1] = target: HCV NS3/4A protease genotype 1b (Hepatitis C virus genotype 1b, UniProt P26663); test: HCV NS3/4A protease time-resolved fluorescence (TRF) assay, Ki against genotype 1b; type: biochemical
Summary of the method: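 NS3/4A enzyme was preincubated 30 min with inhibitor in 50 mM HEPES pH 7.5, 150 mM NaCl, 15% glycerol, 0.15% Triton X-100, 10 mM DTT, 0.1% PEG 8000; 25 nM europium TRF peptide substrate added, 2.5 h at room temperature. Enzyme: 0.2 nM (1b), 0.4 nM (A156T), 0.025 nM (3a). Ki from IC50 via Cheng-Prusoff.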

[2] = IC50 [gt-1b] (nM), NS3/4A genotype 1b, enzyme 0.2 nM, K+ salt
[3] = IC50 [gt-1b] (nM), NS3/4A genotype 1b, enzyme 0.2 nM

SMILES	EC50 (HCV genotype 1b replicon; genotype 1b replicon, K+ salt) [nM]	IC50 [1, 2] [nM]	EC50 (HCV genotype 1b replicon; genotype 1b replicon) [nM]	IC50 [1, 3] [nM]	other results
Cc1nc2ccc(Cl)cc2c2c1O[C@]1(CC2)C[C@H]2C(=O)N[C@]3(C(=O)NS(=O)(=O)C4(C)CC4)C[C@H]3/C=C\CCCCC[C@H](NC(=O)OC3CCCCC3)C(=O)N2C1 [Example 190, cyclohexyl [(2R,6S,12Z,13aS,14aR,16aS)-9′-chloro-5′-methyl-14a-{[(1-methylcyclopropyl)sulfonyl]carbamoyl}-5,16-dioxo-1,1′,2′,5,6,7,8,9,10,11,13a,14,14a,15,16,16a-hexadecahydrospiro[cyclopropa[e]pyrrolo[1,2-a][1,4]diazacyclopentadecine-2,3′-pyrano[2,3-c]quinolin]-6-yl]carbamate]	13.2	0.009	–	–	–
COc1ccc2nc(C(F)F)c3c(c2c1)CC[C@]1(C[C@H]2C(=O)N[C@]4(C(=O)NS(=O)(=O)C5(C)CC5)C[C@H]4/C=C\CCCCC[C@H](NC(=O)OCC(C)(C)C)C(=O)N2C1)O3 [Example 441, 2,2-dimethylpropyl [(2R,6S,12Z,13aS,14aR,16aS)-5′-(difluoromethyl)-9′-methoxy-14a-{[(1-methylcyclopropyl)sulfonyl]carbamoyl}-5,16-dioxo-1,1′,2′,5,6,7,8,9,10,11,13a,14,14a,15,16,16a-hexadecahydrospiro[cyclopropa[e]pyrrolo[1,2-a][1,4]diazacyclopentadecine-2,3′-pyrano[2,3-c]quinolin]-6-yl]carbamate]	–	–	–	–	EC50 (HCV genotype 1b replicon; HCV replicon, genotype 1b, K+ salt): 1.53 nM; IC50 ([1]; IC50 [gt-1b], NS3/4A protease TRF assay, genotype 1b enzyme 0.2 nM, K+ salt): 0.016 nM
CC(C)(C)OC(=O)N[C@H]1CCCCC/C=C\[C@@H]2C[C@@]2(C(=O)NS(=O)(=O)C2(C)CC2)NC(=O)[C@@H]2C[C@]3(CCc4c(ccc5ccccc45)O3)CN2C1=O [Example 73, tert-butyl [(3R,6′S,12′Z,13a′S,14a′R,16a′S)-14a′-{[(1-methylcyclopropyl)sulfonyl]carbamoyl}-5′,16′-dioxo-1,1′,2,5′,6′,7′,8′,9′,10′,11′,13a′,14′,14a′,15′,16′,16a′-hexadecahydrospiro[benzo[f]chromene-3,2′-cyclopropa[e]pyrrolo[1,2-a][1,4]diazacyclopentadecin]-6′-yl]carbamate]	–	–	1.71	0.12	–
Cc1nc2ccccc2c2c1O[C@]1(CC2)C[C@H]2C(=O)N[C@]3(C(=O)NS(=O)(=O)C4(C)CC4)C[C@H]3/C=C\CCCCC[C@H](NC(=O)OC(C)(C)C(F)(F)F)C(=O)N2C1 [Example 47]	–	–	–	0.011	EC50 (HCV genotype 1b replicon; GETYPE1B|GT1B, genotype 1b replicon): 3.72 nM
COc1ccc2nc(C)c3c(c2c1)CC[C@]1(C[C@H]2C(=O)N[C@]4(C(=O)NS(=O)(=O)C5(C)CC5)C[C@H]4/C=C\CCCCC[C@H](NC(=O)OCC(C)(C)C)C(=O)N2C1)O3 [Example 205, 2,2-dimethylpropyl [(2R,6S,12Z,13aS,14aR,16aS)-9′-methoxy-5′-methyl-14a-{[(1-methylcyclopropyl)sulfonyl]carbamoyl}-5,16-dioxo-1,1′,2′,5,6,7,8,9,10,11,13a,14,14a,15,16,16a-hexadecahydrospiro[cyclopropa[e]pyrrolo[1,2-a][1,4]diazacyclopentadecine-2,3′-pyrano[2,3-c]quinolin]-6-yl]carbamate]	0.647	0.005	–	–	–
Cc1nc2ccccc2c2c1O[C@]1(CC2)C[C@H]2C(=O)N[C@]3(C(=O)NS(=O)(=O)C4(C)CC4)C[C@H]3/C=C\CCCCC[C@H](NC(=O)OC(C)(C)CCS(=O)(=O)C(C)C)C(=O)N2C1 [Example 304, 2-methyl-4-(propan-2-ylsulfonyl)butan-2-yl [(2R,6S,12Z,13aS,14aR,16aS)-5′-methyl-14a-{[(1-methylcyclopropyl)sulfonyl]carbamoyl}-5,16-dioxo-1,1′,2′,5,6,7,8,9,10,11,13a,14,14a,15,16,16a-hexadecahydrospiro[cyclopropa[e]pyrrolo[1,2-a][1,4]diazacyclopentadecine-2,3′-pyrano[2,3-c]quinolin]-6-yl]carbamate]	–	–	99.6	0.027	–
